Measured values as given in patent publication US11976057B2, “MrgX2 antagonists” (GlaxoSmithKline Intellectual Property Development Limited, priority 2020, dated 2024).

The molecules below were run against T1, human MRGPRX2 (Homo sapiens, UniProt Q96LB1) (assay: Ca2+ mobilization assay (FLIPR TETRA): inhibition of Cortistatin-14 mediated MRGPRX2 activation).
T1 sequence (Q96LB1 1-330): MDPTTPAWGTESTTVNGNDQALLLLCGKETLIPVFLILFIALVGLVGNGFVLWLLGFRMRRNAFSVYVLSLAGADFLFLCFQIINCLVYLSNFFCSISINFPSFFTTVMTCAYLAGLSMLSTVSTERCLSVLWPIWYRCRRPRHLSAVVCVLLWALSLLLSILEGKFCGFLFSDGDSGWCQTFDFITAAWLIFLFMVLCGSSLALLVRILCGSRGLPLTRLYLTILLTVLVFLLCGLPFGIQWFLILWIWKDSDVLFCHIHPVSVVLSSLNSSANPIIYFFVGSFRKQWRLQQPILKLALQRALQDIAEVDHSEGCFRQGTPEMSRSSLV

For `C[C@@H](C(=O)Nc1cnc(Oc2ccc(F)cc2)cn1)N1CCC(F)(F)[C@@H](c2c[nH]c(=O)c(CS(C)(=O)=O)c2)C1` [Example 215, (S)-2-((S)-4,4-difluoro-3-(5-((methylsulfonyl)methyl)-6-oxo-1,6-dihydropyridin-3-yl)piperidin-1-yl)-N-(5-(4-fluorophenoxy)pyrazin-2-yl)propanamide], which IC50 is on record?
Its IC50 is 0.01 to 0.1 µM.

Which IC50 does the source give for `C[C@@H](C(=O)Nc1ccc(Oc2ccc(F)cc2)cn1)N1CCC(F)(F)[C@@H](c2c[nH]c(=O)c(CO)c2)C1` [Example 156] here?
The IC50 was no more than 0.01 µM.

How did the IC50 turn out when `CC(C(=O)Nc1ncc(Oc2ccc(F)cn2)cc1F)N1CCC(F)(F)[C@@H](c2ccc(=O)[nH]c2)C1` (stereo partly drawn) [Example 91, 2-((S)-4,4-difluoro-3-(6-oxo-1,6-dihydropyridin-3-yl)piperidin-1-yl)-N-(3-fluoro-5-((5-fluoropyridin-2-yl)oxy)pyridin-2-yl)propanamide] was run?
Its IC50 is 0.1 to 3.16 µM.

How did the IC50 turn out when `C[C@@H](C(=O)Nc1cnc(Oc2cc(F)c(F)cc2F)cn1)N1CCC(F)(F)[C@@H](c2cc[n+]([O-])cc2)C1` [Example 120, 4-((S)-4,4-difluoro-1-((S)-1-oxo-1-((5-(2,4,5-trifluorophenoxy)pyrazin-2-yl)amino)propan-2-yl)piperidin-3-yl)pyridine 1-oxide] was run?
Its IC50 is no more than 0.01 µM.

Which IC50 does the source give for `C[C@@H](C(=O)Nc1ccc(Oc2ccc(F)cc2)cn1)N1CCC(F)(F)C(c2c[nH]c(=O)c(C(O)C(F)(F)F)c2)C1` (stereo partly drawn) [Example 211, (2S)-2-(4,4-difluoro-3-(6-oxo-5-(2,2,2-trifluoro-1-hydroxyethyl)-1,6-dihydropyridin-3-yl)piperidin-10-yl)-N-(5-(4-fluorophenoxy)pyridin-2-yl)propanamide] here?
Its IC50 is no more than 0.01 µM.

Which IC50 does the source give for `C[C@@H](C(=O)Nc1ccc(Oc2cc(F)c(F)cc2F)cn1)N1CCC(F)(F)[C@@H](c2cc[n+]([O-])cc2)C1` [Example 124, 4-((S)-4,4-difluoro-1-((S)-1-oxo-1-((5-(2,4,5-trifluorophenoxy)pyridin-2-yl)amino)propan-2-yl)piperidin-3-yl)pyridine 1-oxide] here?
Its IC50 is no more than 0.01 µM.

`C[C@@H](C(=O)Nc1cnc(Oc2ccc(F)cc2F)cn1)N1CCC(F)(F)[C@@H](c2c[nH]c(=O)c(CN3CCOCC3)c2)C1` [Example 229, (S)-2-((S)-4,4-difluoro-3-(5-(morpholinomethyl)-6-oxo-1,6-dihydropyridin-3-yl)piperidin-1-yl)-N-(5-(2,4-difluorophenoxy)pyrazin-2-yl)propanamide] was tested. Which IC50 did it give?
Its IC50 is no more than 0.01 µM.

With `C[C@@H](C(=O)Nc1ccc(Oc2ncc(F)cc2F)cn1)[C@H]1CCC[C@@H](c2cc[n+]([O-])cc2)C1` [Example 290, 4-((1R,3S)-3-((R)-1-((5-((3,5-difluoropyridin-2-yl)oxy)pyridin-2-yl)amino)-1-oxopropan-2-yl)cyclohexyl)pyridine 1-oxide] as the molecule, how does the IC50 read?
The IC50 was 0.01 to 0.1 µM.

Which IC50 does the source give for `C[C@@H](C(=O)Nc1ccc(Cl)cn1)N1CCC[C@@H](c2c[nH]c(=O)c(-c3ccccc3)c2)C1` (single isomer, unassigned) [Example 178] here?
The IC50 was 0.1 to 3.16 µM.

Which IC50 does the source give for `C[C@@H](C(=O)Nc1ccc(OCc2ncco2)cn1)N1CCC(F)(F)[C@@H](c2ccc(=O)[nH]c2)C1` [Example 38, (S)-2-((S)-4,4-difluoro-3-(6-oxo-1,6-dihydropyridin-3-yl)piperidin-1-yl)-N-(5-(oxazol-2-ylmethoxy)pyridin-2-yl)propanamide] here?
Its IC50 is 0.1 to 3.16 µM.

With `CC(C(=O)Nc1ccc(F)cn1)N1CCC(F)(F)C(c2c[nH]c(=O)c(CS(C)(=O)=O)c2)C1` (stereo not shown) [Example 213, 2-(4,4-difluoro-3-(5-((methylsulfonyl)methyl)-6-oxo-1,6-dihydropyridin-3-yl)piperidin-1-yl)-N-(5-fluoropyridin-2-yl)propanamide] as the molecule, how does the IC50 read?
The IC50 was 0.1 to 3.16 µM.

`C[C@@H](C(=O)Nc1cnc(Oc2ccc(F)cc2)cn1)N1CCC(F)(F)[C@@H](c2ccc(=O)[nH]c2)C1` [Example 68, (S)-2-((S)-4,4-difluoro-3-(6-oxo-1,6-dihydropyridin-3-yl)piperidin-1-yl)-N-(5-(4-fluorophenoxy)pyrazin-2-yl)propanamide] was tested. Which IC50 did it give?
The IC50 was 0.01 to 0.1 µM.

With `C[C@@H](C(=O)Nc1ccc(Cl)cn1)N1CCC[C@@H](c2c[nH]c(=O)c(N)c2)C1` [Example 170] as the molecule, how does the IC50 read?
The IC50 was 0.1 to 3.16 µM.

How did the IC50 turn out when `C[C@@H](C(=O)Nc1ccc(Oc2ccccc2)nn1)N1CCC(F)(F)[C@@H](c2ccc(=O)[nH]c2)C1` [Example 19, 2-((S)-4,4-difluoro-3-(6-oxo-1,6-dihydropyridin-3-yl)piperidin-1-yl)-N-(6-phenoxy-pyridazin-3-yl)propanamide] was run?
The IC50 was 0.1 to 3.16 µM.

Which IC50 does the source give for `C[C@@H](C(=O)Nc1ncc(OCC2CC2)cc1F)N1CCC(F)(F)[C@@H](c2ccc(=O)[nH]c2)C1` [Example 28, (S)-N-(5-(cyclopropyl-methoxy)-3-fluoropyridin-2-yl)-2-((S)-4,4-difluoro-3-(6-oxo-1,6-dihydropyridin-3-yl)piperidin-1-yl)propanamide] here?
Its IC50 is 0.1 to 3.16 µM.

How did the IC50 turn out when `C[C@@H](C(=O)Nc1ccc(F)cn1)N1CCC(F)(F)C(c2ccc(=O)n(CCS(C)(=O)=O)c2)C1` (stereo partly drawn) [Example 190, (2S)-2-(4,4-difluoro-3-(1-(2-(methylsulfonyl)ethyl)-6-oxo-1,6-dihydropyridin-3-yl)piperidin-1-yl)-N-(5-fluoropyridin-2-yl)propanamide] was run?
The IC50 was 0.1 to 3.16 µM.

`C[C@@H](C(=O)Nc1ccc(Oc2ccc(F)cc2)cn1)N1CCC(F)(F)[C@@H](c2c[nH]c(=O)c(C#N)c2)C1` [Example 251, (S)-2-((S)-3-(5-cyano-6-oxo-1,6-dihydropyridin-3-yl)-4,4-difluoropiperidin-1-yl)-N-(5-(4-fluorophenoxy)pyridin-2-yl)propanamide] was tested. Which IC50 did it give?
Its IC50 is no more than 0.01 µM.

`C[C@@H](C(=O)Nc1ccc(Oc2ccc(Cl)cn2)cn1)N1CCC(F)(F)[C@@H](c2ccc(=O)[nH]c2)C1` [Example 88, (S)-N-(5-((5-chloropyridin-2-yl)oxy)pyridin-2-yl)-2-((S)-4,4-difluoro-3-(6-oxo-1,6-dihydropyridin-3-yl)piperidin-1-yl)propanamide] was tested. Which IC50 did it give?
Its IC50 is 0.01 to 0.1 µM.

Which IC50 does the source give for `C[C@@H](C(=O)Nc1ccc(F)cn1)N1CCC(F)(F)[C@@H](c2ccc(=O)[nH]n2)C1` [Example 148, (S)-2-((R)-4,4-difluoro-3-(6-oxo-1,6-dihydropyridazin-3-yl)piperidin-1-yl)-N-(5-fluoropyridin-2-yl)propanamide] here?
The IC50 was 0.1 to 3.16 µM.

`C[C@@H](C(=O)Nc1ccc(Oc2ccccc2)cn1)N1CCC(F)(F)[C@@H](c2ccc(=O)[nH]c2)C1` [Example 6, (S)-2-((S)-4,4-difluoro-3-(6-oxo-1,6-dihydropyridin-3-yl)piperidin-1-yl)-N-(5-phenoxypyridin-2-yl)propanamide] was tested. Which IC50 did it give?
Its IC50 is no more than 0.01 µM.

For `CC(C(=O)Nc1ccc(C2CCCCC2)cn1)N1CCC(F)(F)[C@@H](c2ccc(=O)[nH]c2)C1` (stereo partly drawn) [Example 42, N-(5-cyclohexyl-pyridin-2-yl)-2-((S)-4,4-difluoro-3-(6-oxo-1,6-dihydropyridin-3-yl)piperidin-1-yl)propanamide], which IC50 is on record?
Its IC50 is 0.1 to 3.16 µM.

How did the IC50 turn out when `C[C@@H](C(=O)Nc1ccc(OCC2CC2)nn1)N1CCC(F)(F)[C@@H](c2c[nH]c(=O)cn2)C1` [Example 134, (S)-N-(6-(cyclopropylmethoxy)pyridazin-3-yl)-2-((R)-4,4-difluoro-3-(5-oxo-4,5-dihydropyrazin-2-yl)piperidin-1-yl)propanamide] was run?
Its IC50 is 0.01 to 0.1 µM.
